GI50 and TGI data for 19 compounds are collected here from PubChem BioAssay (NCI).

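Values below derive from 48-hour exposures of cells grown in 96-well plates, with endpoints linearly interpolated between the two concentrations bracketing the appropriate inhibition level. Abbreviation: GI50, concentration required for 50% inhibition of growth. Definition used: TGI = concentration required for complete inhibition of growth.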

Holding throughout (experiment): NCI tumour cell line growth inhibition, 48 h
The test system of test [1] is HOP-92 NSCLC.
Test [2] deals with SW-620 colon.
The test system of test [3] is UO-31 renal.
The test system of test [4] is OVCAR-8 ovarian.
For test [5], the system named is EKVX NSCLC.
Test [6] relates to HOP-62 NSCLC.
Test [7] relates to SK-OV-3 ovarian.
In test [8] the test system is IGROV1 ovarian.
In test [9] the test system is TK-10 renal.
In test [10] the test system is NCI-H460 lung.

On to `Nc1cccc2c1CN(C1CCC(=O)NC1=O)C2=O` (stereo unspecified), for which the GI50 is greater than 34.2 µM in test [1]; greater than 100 µM in [2]; greater than 100 µM in [3]; greater than 100 µM in test [4]; greater than 100 µM in test [5]; greater than 100 µM in test [6]. Further, the GI50 in test [7], in test [8], in test [9] and in [10] was greater than 100 µM in each case. The TGI in test [1], in [2], in test [3], in [4], in [5] and in [6] was greater than 100 µM throughout. Further, the TGI in test [7], in [8], in test [9] and in test [10] was greater than 100 µM each time.
Regarding `CCN1CCN(CC(=O)Nc2nc3ccc(NCc4ccc(C)cc4)cc3s2)CC1`, the GI50 in [1] was 0.504 µM; in test [2], 1.6 µM; in [3], 2.57 µM; in [4], 6.66 µM; in test [5], 5.67 µM; in test [6], 2.02 µM. Also, the GI50 in [7] was 4.12 µM; in test [8] it was 6.14 µM; in test [9], 7.54 µM; in test [10] it was 2.12 µM. In addition, the TGI in [1] amounted to 2.34 µM; in test [2], 6.07 µM; in [3] it was 10.8 µM; in test [4], 16.5 µM; in test [5], 13.8 µM; in test [6], 8.03 µM. Further, the TGI in test [7] turned out to be 12.4 µM; in [8], 14.1 µM; in test [9], 15.1 µM; in test [10], 7.71 µM.
`CCCCCCCCn1ccc2cc(NC(=O)Cn3cc(CN4CCC(C)CC4)nn3)ccc21`: the GI50 is 1.16 µM in test [1]; 1.77 µM in test [2]; 1.44 µM in test [3]; 1.86 µM in test [4]; 1.67 µM in test [5]; 1.76 µM in test [6]. Besides, the GI50 in test [7] is 1.9 µM; in test [8] it was 1.43 µM; in test [9] it was 1.7 µM; in test [10] it was 1.7 µM. Moreover, the TGI in test [1] was found to be 2.57 µM; in test [2] it was 3.46 µM; in test [3], 2.74 µM; in [4], 3.81 µM; in test [5], 3.66 µM; in test [6], 3.4 µM. The TGI in test [7] came out at 3.7 µM; in test [8] it was 2.96 µM; in test [9], 3.21 µM; in test [10], 3.22 µM.
Turning to `COc1ccc(C2c3cc4c(c(OC)c3CC3OCC(=O)C32)OCO4)cc1OC` (stereo unspecified), the TGI is greater than 100 µM in test [1]; greater than 100 µM in test [2]; 48.4 µM in test [3]; 46.9 µM in test [4]; greater than 100 µM in test [5]; greater than 100 µM in test [7]. In addition, the TGI in test [8] was greater than 100 µM; in test [9] it was greater than 100 µM; in [10] it was 14.3 µM. The GI50 in [2], in [3], in [4], in [5], in test [7] and in test [10] was less than 0.01 µM each time.
For `Cc1ccc(NC(C(=O)c2ccccc2)c2ccccc2)cc1` (stereo unspecified), the GI50 in [1] is 3.58 µM; in test [2], 3.47 µM; in test [3] it was 13.8 µM; in test [4], 3.52 µM; in test [5], 1 µM; in test [6], 9.75 µM. Also, the GI50 was 15.8 µM in test [7], 2.11 µM in [8] and 2.8 µM in test [10]. Further, the TGI is 8.95 µM in test [1]; greater than 100 µM in test [2]; 35.8 µM in test [3]; greater than 100 µM in [4]; 6 µM in test [5]; 39.1 µM in test [6]. Moreover, the TGI in test [7] is 58.2 µM; in test [8] it was 22.6 µM; in test [10], 11.8 µM.
For `C=C1C(=O)O[C@H]2[C@H]1CC/C(COC(=O)c1cccc3ccccc13)=C\CC[C@@]1(C)O[C@@H]21`, the GI50 in test [1] is 1.01 µM; in test [2], 1.08 µM; in test [3] it was 1.44 µM; in test [4], 1.7 µM; in test [5], 1.81 µM; in test [6], 1.76 µM. Also, the GI50 is 11.6 µM in test [7], 1.03 µM in [8], 1.85 µM in [9] and 2.16 µM in [10]. For the same compound, the TGI is 2.61 µM in test [1]; 2.87 µM in test [2]; 2.76 µM in test [3]; 5.42 µM in test [4]; 3.94 µM in test [5]; 3.68 µM in test [6]. Further, the TGI stood at 23.7 µM in [7], 2.79 µM in test [8], 3.42 µM in test [9] and 4.84 µM in test [10].
In the case of `COC(=O)c1c2c(c(C)[n+]([O-])c1C)C(=O)C=C(NCc1ccc(Br)cc1)C2=O`, the GI50 in [1] is 1.74 µM; in test [2], 0.17 µM; in test [3], 1.08 µM; in test [5] it was 0.763 µM; in test [6], 1.05 µM; in test [7], 1.52 µM. In addition, the GI50 in test [8] is 0.473 µM; in test [9], 2.27 µM; in test [10], 0.431 µM. For the same compound, the TGI in test [1] is 3.6 µM; in [2] it was 1.71 µM; in test [3], 2.44 µM; in test [5], 2.37 µM; in [6] it was 2.47 µM; in test [7] it was 3.41 µM. In addition, the TGI stood at 2.14 µM in test [8], 5.88 µM in [9] and 1.99 µM in test [10].
Consider `CC1(C)C(=O)CCC(=O)C(C)(C)C2=CC=C(O2)C(C)(C)C(=O)CCC(=O)C(C)(C)C2=CC=C1O2`, for which the TGI in [1], in test [2], in [4], in [5], in test [6] and in test [7] was greater than 100 µM throughout. The TGI in [8], in test [9] and in test [10] was greater than 100 µM throughout.
With `CC(=O)Nc1cc(C(c2ccccc2)c2ccccc2)cc(C(c2ccccc2)c2ccccc2)c1C`, the GI50 in [1] was 4.68 µM; in [2], 7.25 µM; in [3] it was 3.54 µM; in test [4], greater than 100 µM; in test [5] it was 3.23 µM; in test [6], greater than 100 µM. The results for the GI50 in test [7], in test [8] and in test [10] were greater than 100 µM, 32.5 µM and 7.49 µM, respectively. Moreover, the TGI in test [1], in [2], in [3], in [4], in [5] and in test [6] was greater than 100 µM in each case. In addition, the TGI in [7], in test [8] and in [10] was greater than 100 µM in each case.
With `O=C(CCCCCNC1=CC(=O)c2ccccc2C1=O)NCCC[Te]c1ccccc1`, the GI50 in [1] is 0.583 µM; in test [3], 0.311 µM; in [4], 0.446 µM; in [5] it was 0.259 µM; in test [6], 0.272 µM; in [7], 0.487 µM. The GI50 in [8] is 0.518 µM; in [9] it was 2.05 µM; in test [10], 0.197 µM. In addition, the TGI in [1] turned out to be 1.65 µM; in [3] it was 1.3 µM; in [5], 0.928 µM; in test [6], 0.731 µM; in test [7], 1.85 µM; in test [8], 1.89 µM. The figures for the TGI in test [9] and in test [10] were 6.04 µM and 0.576 µM, respectively.
As for `Cc1cc(C(=O)N2CCN(C)CC2)c2c(=O)n(-c3ccccc3)c(=O)n(CC(O)CN3CCN(c4ncccn4)CC3)c2n1` (stereo unspecified), the GI50 in test [1], in test [2], in [3], in test [5], in test [6] and in [7] was greater than 100 µM in each case. For the same compound, the GI50 in test [8], in test [9] and in test [10] was greater than 100 µM in each case. The TGI in [1], in test [2], in test [3], in [5], in [6] and in test [7] was greater than 100 µM throughout. Besides, the TGI in test [8], in test [9] and in test [10] was greater than 100 µM each time.
In the case of `CCOC(=O)C/C(N)=C(\C#N)C(=O)OCC`, the TGI in test [1], in [2], in test [3], in test [4], in [5] and in test [7] was greater than 100 µM each time. Moreover, the TGI in test [8], in [9] and in [10] was greater than 100 µM throughout.
Regarding `CN(C)CCCNC(=O)c1cccc2nc3ccccc3nc12`, the TGI in test [1] is greater than 78.4 µM; in test [2], greater than 54.9 µM; in test [3], greater than 71 µM; in [4], greater than 82.2 µM; in test [5] it was greater than 77.4 µM; in test [6] it was 45.5 µM. The results for the TGI in test [7], in [8] and in test [9] were greater than 100 µM, greater than 82.2 µM and greater than 100 µM, respectively.
Take `COc1ccc(/C=C/c2ccnc3ccccc23)cc1`: the TGI in test [1] turned out to be 16.5 µM; in test [2] it was 36.3 µM; in test [3], 0.0937 µM; in [5] it was 25.8 µM; in [6], 35.9 µM; in [7] it was 33.5 µM. The TGI in [8] stood at 32.5 µM; in [9], 31.7 µM; in test [10] it was 47.7 µM.
In the case of `C=C(CS(=O)(=O)c1ccccc1)C(=O)OCC`, the TGI in test [1] is 40 µM; in test [2], 29.2 µM; in [3] it was 35.4 µM; in test [4] it was 22.4 µM; in test [5], 39.9 µM; in test [7] it was 28 µM. The figures for the TGI in test [8], in test [9] and in test [10] were 38.8 µM, 31.8 µM and 35.4 µM, respectively.
On to `CC[C@@]1(OC(=O)C(N)CCC(=O)O)C(=O)OCc2c1cc1n(c2=O)Cc2cc3ccccc3nc2-1` (stereo partly specified), for which the TGI in [1] is 1.57 µM; in test [2] it was greater than 21.1 µM; in [3], 0.746 µM; in test [4] it was 10.7 µM; in test [5], greater than 57.8 µM; in test [6], 0.125 µM. The TGI in [7] is 3.33 µM; in test [8], 4.35 µM; in test [9], greater than 100 µM.
With `Cc1cn(C2CC(N=[N+]=[N-])C(CO)O2)c(=O)[nH]c1=O` (stereo unspecified), the GI50 in test [1], in test [2], in [3], in test [5], in test [6] and in [7] was greater than 1000 µM each time. For the same compound, the GI50 in test [8] was greater than 1000 µM. Besides, the TGI in test [1], in test [2], in test [3], in test [4], in test [5] and in test [6] was greater than 1000 µM in each case. For the same compound, the TGI in test [7], in test [8] and in test [9] was greater than 1000 µM in each case.
Take `CC(=O)NC1CCCN(O)C(=O)/C=C(/C)CCOC(=O)C(NC(C)=O)CCCN(O)C(=O)/C=C(/C)CCOC(=O)C(NC(C)=O)CCCN(O)C(=O)/C=C(/C)CCOC1=O.[Fe]` (stereo unspecified): the GI50 in [1], in [2], in test [3], in test [4], in test [5] and in [6] was greater than 100 µM each time. The GI50 in [8], in test [9] and in test [10] was greater than 100 µM throughout. In addition, the TGI in [1], in test [2], in test [3], in [4], in test [5] and in [6] was greater than 100 µM in each case. In addition, the TGI in test [8], in test [9] and in test [10] was greater than 100 µM each time.
As for `CCOc1ccc(/C=N\N2C(=O)c3ccccc3C2=O)cc1`, the TGI in test [1], in [2], in test [3], in test [4], in [5] and in test [6] was greater than 100 µM throughout. The TGI in test [8], in [9] and in [10] was greater than 100 µM each time.
